Measured values from patent US5795907A, “Gastin and CCK receptor ligands” (James Black Foundation Limited, priority 1994, dated 1998).

Key:
CCKB receptor = target: T1, CCKB receptor (Mus musculus, UniProt P56481); assay: CCKB receptor radioligand binding assay in mouse cortical membranes ([125I]-CCK8S); details: [125I]-CCK8S 200 pM, 150 min at 21±3°; for Ki: read-out: CCKB pKi (converted)
T1 construct: The cortex was dissected, weighed and homogenised in 40ml ice-cold buffer; tissue Charles River (supplier of the CD1 mice); host or cells: cerebral cortex membranes of male CD1 mice
T1 sequence (P56481 1-453): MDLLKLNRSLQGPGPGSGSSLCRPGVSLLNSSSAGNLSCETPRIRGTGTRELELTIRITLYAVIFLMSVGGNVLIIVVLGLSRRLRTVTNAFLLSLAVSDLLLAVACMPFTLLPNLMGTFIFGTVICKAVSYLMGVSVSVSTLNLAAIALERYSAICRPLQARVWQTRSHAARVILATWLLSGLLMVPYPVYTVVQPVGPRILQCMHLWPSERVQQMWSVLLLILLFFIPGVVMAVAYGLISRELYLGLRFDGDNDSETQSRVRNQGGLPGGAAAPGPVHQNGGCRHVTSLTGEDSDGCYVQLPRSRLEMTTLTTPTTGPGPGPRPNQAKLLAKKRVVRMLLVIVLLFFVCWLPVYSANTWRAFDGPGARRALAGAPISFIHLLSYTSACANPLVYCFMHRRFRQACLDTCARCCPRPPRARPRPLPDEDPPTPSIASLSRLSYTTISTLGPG
How it was run: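 This was competition binding with tracer [125I]-CCK8S (200 pM solution added), run for 150 min at 21±3° on male CD1 mouse cortex membranes in pH 7.2 HEPES buffer with bacitracin. Filtration then gamma counting gave bound radioactivity. L-365,260 set the non-specific level.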

gastrin = target: T2, gastrin (Rattus norvegicus, UniProt P30553); assay: gastrin antagonist activity in an immature rat stomach assay (pentagastrin-stimulated acid secretion); details: cumulative pentagastrin dose-response curves after 60 min with drug; for Kb: read-out: Gastrin pKB (converted)
T2 construct: The stomach was lowered into a jacketed organ bath containing 40 ml of buffered solution; from tissue; host or cells: isolated perfused whole stomach of immature rats (ca. 21 days old)
T2 sequence (P30553 1-452): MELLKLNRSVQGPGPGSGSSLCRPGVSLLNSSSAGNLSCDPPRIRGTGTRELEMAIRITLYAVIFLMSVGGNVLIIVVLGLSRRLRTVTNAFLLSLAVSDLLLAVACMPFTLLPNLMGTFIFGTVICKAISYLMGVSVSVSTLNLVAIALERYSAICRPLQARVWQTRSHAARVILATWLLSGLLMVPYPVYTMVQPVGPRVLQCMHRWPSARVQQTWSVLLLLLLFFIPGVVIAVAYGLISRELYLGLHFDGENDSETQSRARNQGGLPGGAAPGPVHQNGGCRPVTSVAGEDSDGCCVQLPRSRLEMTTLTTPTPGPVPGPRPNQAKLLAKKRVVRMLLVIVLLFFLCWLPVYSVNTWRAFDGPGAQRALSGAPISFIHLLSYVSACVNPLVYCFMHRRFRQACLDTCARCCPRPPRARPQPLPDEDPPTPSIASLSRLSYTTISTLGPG
How it was run: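 Isolated lumen-perfused immature rat stomach (33-50 g, ca. 21 days) in 37° organ bath with 3×10^-8 M 5-methylfurmethide; acid secretion read by pH electrode in perfusate. Compound added to serosal bath after 120 min stabilisation; cumulative pentagastrin dose-response curves begun 60 min later and analysed by the Black et al. method.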

CCKA = target: T3, CCKA (Cavia porcellus, UniProt Q63931); assay: CCKA radioligand binding assay in guinea-pig pancreas membranes ([125I]-CCK8(S)); details: PD134,308 present, 150 minutes at 21±3°; for Ki: read-out: CCKA pKi (converted)
T3 construct: The pancreatata were homogenised in 40 ml ice-cold HEPES buffer using a polytron; from tissue; host or cells: pancreas membranes of male Dunkin Hartley guinea-pigs
T3 sequence (Q63931 1-430): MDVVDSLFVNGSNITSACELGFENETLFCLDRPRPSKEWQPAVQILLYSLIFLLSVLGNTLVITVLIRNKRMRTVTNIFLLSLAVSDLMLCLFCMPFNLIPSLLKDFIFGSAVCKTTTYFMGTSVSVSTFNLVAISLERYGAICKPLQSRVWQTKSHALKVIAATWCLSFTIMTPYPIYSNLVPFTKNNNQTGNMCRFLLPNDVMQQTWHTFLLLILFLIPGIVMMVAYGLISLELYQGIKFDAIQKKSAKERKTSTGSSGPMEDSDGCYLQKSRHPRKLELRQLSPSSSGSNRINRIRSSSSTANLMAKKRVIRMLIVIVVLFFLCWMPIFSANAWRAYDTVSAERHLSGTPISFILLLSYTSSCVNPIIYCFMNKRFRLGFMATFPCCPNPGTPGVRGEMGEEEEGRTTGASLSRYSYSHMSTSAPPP
How it was run: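 Competition for [125I]-CCK8(S) (added as […] solution) ran for 150 min at 21±3° in HEPES pH 7.2. Membranes came from male guinea-pig pancreas at 1 mg/ml original wet weight, with 0.375 μM PD134,308 in the suspension. Filter-bound counts were gamma-counted; 100 nM L-364,718 (added solution) defined non-specific binding.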

CCKB pKi (CCKB receptor) | Gastrin pKB (gastrin) | CCKA pKi (CCKA) | Ki (CCKB receptor) [µM] | Kb (gastrin) [µM] | Ki (CCKA) [µM] | Molecule
 |  |  | 0.00126 | 0.00251 | 0.316 | O=C(NCC12CC3CC(CC(C3)C1)C2)c1cc2[nH]ccc2cc1C(=O)N[C@@H](Cc1ccccc1)C(=O)Nc1cc(-c2nn[nH]n2)cc(-c2nn[nH]n2)c1 [Example 104, 5-(1S-(3,5-ditetrazolylphenylaminocarbonyl)-2-phenylethylaminocarbonyl)-6-(1-adamantanemethylaminocarbonyl)-indole]
7.9 | 8.5 | 6.3 |  |  |  | 5-(1S-(3,5-dicarboxyphenylaminocarbonyl)-2-phenylethylaminocarbonyl)-6-(1-adamantanemethylaminocarbonyl)-2,3-dihydro-benzofuran [Example 123]
 |  |  | 0.0251 | 0.00158 | 0.794 | O=C(O)c1cc(NC(=O)[C@H](Cc2ccc(I)cc2)NC(=O)c2cc3[nH]cnc3cc2C(=O)NCC23CC4CC(CC(C4)C2)C3)cc(C(=O)O)c1 [Example 134, 5-(1S-(3,5-dicarboxyphenylaminocarbonyl)-2-(4-iodophenyl)ethylaminocarbonyl)-6-(1-adamantanemethylaminocarbonyl)-benzimidazole]
 |  |  | 0.00398 | 0.0002 | 5.01 | O=C(O)c1cc(NC(=O)[C@H](Cc2cccc(F)c2)NC(=O)c2cc3[nH]cnc3cc2C(=O)NCC23CC4CC(CC(C4)C2)C3)cc(C(=O)O)c1 [Example 131, 5-(1S-(3,5-dicarboxyphenylaminocarbonyl)-2-(3-fluorophenyl)ethylaminocarbonyl)-6-(1-adamantanemethylaminocarbonyl)-benzimidazole]
 |  |  | 0.00126 | 0.000316 | > 10 | O=C(O)c1cc(NC(=O)C(Cc2c(F)c(F)c(F)c(F)c2F)NC(=O)c2cc3[nH]cnc3cc2C(=O)NCC23CC4CC(CC(C4)C2)C3)cc(C(=O)O)c1 (racemic) [Example 136, (±)-5-(1-(3,5-dicarboxyphenylaminocarbonyl)-2-pentafluorophenylethylaminocarbonyl)-6-(1-adamantanemethylaminocarbonyl)-benzimidazole]
6.5 | 6.8 | 4.9 |  |  |  | 5-(1S-(3,5-di-methylsulphonylaminophenylaminocarbonyl)-2-phenylethylaminocarbonyl)-6-(1-adamantanemethylaminocarbonyl)-indole [Example 92]
 |  |  | 0.00398 | 0.001 | 3.98 | O=C(O)c1cc(NC(=O)[C@H](Cc2ccc(F)cc2)NC(=O)c2cc3[nH]cnc3cc2C(=O)NCC23CC4CC(CC(C4)C2)C3)cc(C(=O)O)c1 [Example 132, 5-(1S-(3,5-dicarboxyphenylaminocarbonyl)-2-(4-fluorophenyl)ethylaminocarbonyl)-6-(1-adamantanemethylaminocarbonyl)-benzimidazole]

The remaining lines, values behind:

Molecule | CCKB pKi (CCKB receptor) | Gastrin pKB (gastrin) | CCKA pKi (CCKA) | Ki (CCKB receptor) [µM] | Kb (gastrin) [µM] | Ki (CCKA) [µM]
O=C(O)CNC(=O)[C@@H](Cc1ccccc1)NC(=O)c1cc2cc[nH]c2cc1C(=O)NCC12CC3CC(CC(C3)C1)C2 [Example 91, 5-(1R-(carboxymethylaminocarbonyl)-2-phenylethylaminocarbonyl)-6-(1-adamantanemethylaminocarbonyl)-indole] | 7.4 | 8.0 | 5.3 |  |  | 
O=C(O)c1cc(NC(=O)[C@H](Cc2ccccc2F)NC(=O)c2cc3[nH]ccc3cc2C(=O)NCC23CC4CC(CC(C4)C2)C3)cc(C(=O)O)c1 [Example 88, 6-(1S-(3,5-dicarboxyphenylaminocarbonyl)-2-(2-25 fluorophenyl)ethylaminocarbonyl)-5-(1-adamantaneinetnyl-aminocarbonyl)-indole] |  |  |  | 0.00501 | 0.00251 | 2.51
Cc1ccc(C(=O)O)cc1NC(=O)[C@H](Cc1ccccc1)NC(=O)c1cc2[nH]cnc2cc1C(=O)NCC12CC3CC(CC(C3)C1)C2 [Example 82, 5-(1S-(2-methyl-5-carboxyphenylaminocarbonyl)-2-phenylethylaminocarbonyl)-6-(1-adamantanemethylaminocarbonyl)-benzimidazole] |  |  |  | 0.1 | 0.126 | 2
5-(1S-(3,5-dicarboxyphenylaminocarbonyl)-2-phenylethylaminocarbonyl)-6-(cycloheptanemethylaminocarbonyl)-indole and regioisomer with substituents at positions 5 and 6 reversed [Example 42] | 7.8 | 9.3 | 5.5 |  |  | 
5-(1S-(3,5-dicarboxyphenylaminocarbonyl)-2-(3-fluorophenyl)ethylaminocarbonyl)-6-(1-adamantanemethylaminocarbonyl)-indole and regioisomer with substituents at positions 5 and 6 reversed [Example 28] | 8.5 | 9.7 | 5.4 |  |  | 
COC(=O)[C@H](C)NC(=O)c1cc2ccccc2cc1C(=O)NCC12CC3CC(CC(C3)C1)C2 [Example 2, 2-(1S-methoxycarbonyl-ethylaminocarbonyl)-3-(1-adamantanemethylaminocarbonyl)-naphthalene] |  |  |  | 3.16 | 1 | 12.6
O=C(NCC12CC3CC(CC(C3)C1)C2)c1cc2nc[nH]c2cc1C(=O)N[C@@H](Cc1ccccc1)C(=O)Nc1cc(-c2nn[nH]n2)cc(-c2nn[nH]n2)c1 [Example 80, 5-(1S-(3,5-ditetrazolylphenylaminocarbonyl)-2-phenylethylaminocarbonyl)-6-(1-adamantanemethylaminocarbonyl)-benzimidazole] |  |  |  | 0.00398 | 0.00631 | 0.794
O=C(O)c1cc(NC(=O)[C@H](Cc2ccccc2)NC(=O)c2cc3ccccc3cc2C(=O)NCC23CC4CC(CC(C4)C2)C3)cc(C(=O)O)c1 [Example 15, 2-(1S-(3,5-dicarboxyphenylaminocarbonyl)-2-phenylethylaminocarbonyl)-3-(1-adamantanemethylaminocarbonyl)-naphthalene] | 7.9 | 8.2 | 6.1 |  |  | 
COC(=O)c1cc(NC(=O)[C@H](Cc2ccccc2)NC(=O)c2cc3[nH]cnc3cc2C(=O)NCC23CC4CC(CC(C4)C2)C3)cc(C(=O)OC)c1 [Example 81, 5-(1S-(3,5-dimethoxycarbonylphenylaminocarbonyl)-2-phenylethylaminocarbonyl)-6-(1-adamantane-methylaminocarbonyl)-benzimidazole] |  |  |  | 0.794 | 0.126 | 3.16
5-(1S-(trans 3,4-dicarboxypyrrolidinocarbonyl)-2-phenylethylaminocarbonyl)-6-(1-adamantanemethylaminocarbonyl)-indole and regioisomer with substituents at positions 5 and 6 reversed [Example 50] | 6.6 | 6.9 | 6.1 |  |  | 
